From PMC11449324, “Functional comparison of human and murine equilibrative nucleobase transporter 1” (PLOS ONE, 2024)
Read-outs that look alike come from different tables or passages of the source.

What was measured:
[1] = tested on: HEK293-EV cells (ENBT1-deficient); assay: Radiolabelled substrate uptake in empty vector HEK293-EV cells; type: cell-based, human; conditions: 2 seconds
Description: This is the minimum incubation time achievable with this oil-stop technique, and it was found in previous studies that these short incubation times were necessary to assess the kinetics of this transporter. The aqueous layer was removed via vacuum-powered aspirator, and the tube was washed with 1 mL of NMG buffer prior to removal of the oil layer. […] In transfected-HEK293 cell lines, total uptake was defined as uptake of radiolabeled substrate in cells overexpressing recombinant hENBT1 or mENBT1. […] This non-mediated component would include passive diffusion into the cells and radiolabelled substrate remaining extracellularly in the digested cell pellet after processing the samples. […] ENBT1-mediated uptake was calculated as total uptake minus the non-mediated uptake. Cell water volume (μL) was estimated by incubating cells with ^3H2O for 3 minutes, centrifuging the cells through the oil layer at ~10,000 g, assessing 100 μL of the supernatant for radioactive content, and then processing as described above. Total cellular water volume was determined from the ratio of the decays per minute of the cell pellet, to the decays per minute of the supernatant, allowing for inter-experimental normalization via calculation of picomoles of substrate accumulated per microliter of cell-associated water.

hENBT1 = molecular target: T1, hENBT1 (Homo sapiens, UniProt Q8NBI5); assay: Inhibition of ENBT1-mediated substrate uptake in HEK293-hSLC43A3 cells; type: cell-based
T1 construct: Oligonucleotides corresponding to the coding region of SLC43A3 (NM_001278201) or slc43a3 (NM_021398); expressed in transfected cells; HEK293-hSLC43A3
T1 sequence (Q8NBI5 1-491): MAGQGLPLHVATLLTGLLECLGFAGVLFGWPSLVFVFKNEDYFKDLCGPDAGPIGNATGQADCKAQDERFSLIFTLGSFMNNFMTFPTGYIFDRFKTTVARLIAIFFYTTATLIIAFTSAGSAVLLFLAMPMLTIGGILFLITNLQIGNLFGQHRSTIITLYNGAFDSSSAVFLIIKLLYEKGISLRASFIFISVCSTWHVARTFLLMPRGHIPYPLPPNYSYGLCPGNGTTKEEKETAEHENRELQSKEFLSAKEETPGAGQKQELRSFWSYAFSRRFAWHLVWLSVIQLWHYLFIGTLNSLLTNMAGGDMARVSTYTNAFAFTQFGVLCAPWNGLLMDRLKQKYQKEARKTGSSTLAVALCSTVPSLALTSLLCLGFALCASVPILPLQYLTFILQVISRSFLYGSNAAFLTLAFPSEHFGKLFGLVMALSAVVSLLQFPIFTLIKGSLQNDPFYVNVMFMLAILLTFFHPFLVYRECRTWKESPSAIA
Description: (§1) Harvested cells were suspended in nominally sodium-free N-methyl-D-glucamine (NMG) buffer (140 mM NMG, 5 mM KCl, 4.2 mM KHCO3, 0.36 mM K2HPO4, 0.44 mM KH2PO4, 0.5 mM MgCl2, 1.3 mM CaCl2, 10 mM HEPES, pH 7.4), to minimize potential contribution of sodium-dependent concentrative nucleoside transporter-mediated uptake. Additionally, cells were incubated for 15 minutes at room temperature with 10 μM dipyridamole (DY), an equilibrative nucleoside transporter (ENT) inhibitor, to block equilibrative nucleoside transporter–mediated uptake. The substrate uptake assay was initiated by adding 250 μL cell suspension to 250 μL [^3H] labeled substrate, layered over 21:4 silicone:mineral oil (200 μL) in 1.5 mL microcentrifuge tubes (conducted at room temperature). The uptake reaction was terminated after 2 seconds by centrifugation of the cells through the oil layer at ~10,000 g. This is the minimum incubation time achievable with this oil-stop technique, and it was found in previous studies that these short incubation times were necessary to assess the kinetics of this transporter. The aqueous layer was removed via vacuum-powered aspirator, and the tube was washed with 1 mL of NMG buffer prior to removal of the oil layer. The resulting cell pellet was digested in 250 μL 1 M NaOH overnight (~16 hours), with 220 μL aliquots of digested cells assessed for radioactive content using standard liquid scintillation counting techniques in a Beckman Coulter LS6500 scintillation system (Brea, CA).
(§2) To assess the ability of compounds to inhibit substrate uptake, cells were incubated with the inhibitor for 15 minutes prior to initiating the uptake assay, or exposed to the cells simultaneously with the radiolabelled substrate. […] After subtraction of the non-mediated uptake component, the degree of inhibition was calculated as the ratio of cellular accumulation in the presence of test compound to that measured in its absence (X 100).
(§3) Each assay was repeated 5–6 times using independent cell isolations and reagent preparations. In addition, within each assay, there were two or three technical replicates (using the same reagents and cells) that were averaged to obtain a single data point. Nonlinear curves were fitted to data (presented as mean ± SD from the 5–6 independent experiments), and statistical analyses were done using GraphPad Prism 10 software. In all cases, if the P-value determined from a statistical test was less than 0.05, the null hypothesis was rejected and the alternative hypothesis was favoured. Significant differences between groups were assessed using either Student’s t-test or ordinary one- or two-way analysis of variance (ANOVA) followed by a post hoc Šidák multiple comparison test, as appropriate. For influx and cell viability analyses, significant differences in Km and EC50 value, respectively, between the hENBT1 and mENBT1 data sets, were determined by the extra sum-of-squares F test. For inhibition analyses, the Ki values were determined from the IC50 values using the specified substrate concentration [S], based on the Cheng-Prusoff equation Ki = IC50/(1 + [S]/Km) and experimentally obtained Km values.

mENBT1 = molecular target: T2, mENBT1 (Mus musculus, UniProt A2AVZ9); assay: Inhibition of ENBT1-mediated substrate uptake in HEK293-mslc43a3 cells; type: cell-based
T2 construct: Oligonucleotides corresponding to the coding region of SLC43A3 (NM_001278201) or slc43a3 (NM_021398); expressed in transfected cells; HEK293-mslc43a3
T2 sequence (A2AVZ9 1-502): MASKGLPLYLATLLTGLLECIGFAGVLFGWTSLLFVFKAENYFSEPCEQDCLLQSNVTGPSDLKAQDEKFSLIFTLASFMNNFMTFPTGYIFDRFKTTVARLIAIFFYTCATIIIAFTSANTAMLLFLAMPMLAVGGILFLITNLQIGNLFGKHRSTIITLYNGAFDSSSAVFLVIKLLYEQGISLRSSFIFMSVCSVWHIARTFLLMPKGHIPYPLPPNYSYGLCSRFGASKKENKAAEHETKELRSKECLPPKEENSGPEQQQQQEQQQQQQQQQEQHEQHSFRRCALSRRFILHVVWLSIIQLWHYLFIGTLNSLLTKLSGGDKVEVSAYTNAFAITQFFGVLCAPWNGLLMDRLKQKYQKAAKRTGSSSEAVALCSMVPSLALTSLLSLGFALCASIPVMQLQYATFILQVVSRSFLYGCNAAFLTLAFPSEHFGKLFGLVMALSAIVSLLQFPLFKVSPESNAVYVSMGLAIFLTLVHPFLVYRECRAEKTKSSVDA
Description: as §1, §2, §3

Question: Which “uptake of radiolabelled substrate” value [1] does the source give for Sc1ncnc2nc[nH]c12 [6-MP, 6-Mercaptopurine] here?
Answer: minimal uptake

Question: And the Ki (hENBT1; HEK293-hSLC43A3, 30 μM [3H]adenine, 2 seconds, Cheng-Prusoff, read-out: Ki for inhibition of ENBT1-mediated [3H]adenine uptake)?
Answer: 5900 ± 700 µM

Question: And the “inhibition of ENBT1-mediated [3H]adenine uptake” value (hENBT1; at highest concentration of 6-MP tested (1 mM), HEK293-hSLC43A3)?
Answer: complete inhibition was not obtained

Question: And the “Ki relative to its Km for the transporter” value (hENBT1; hENBT1)?
Answer: 30 fold

Question: What about the Ki (mENBT1; HEK293-mslc43a3, 30 μM [3H]adenine, 2 seconds, Cheng-Prusoff, read-out: Ki for inhibition of ENBT1-mediated [3H]adenine uptake) of the same molecule?
Answer: 7400 ± 1300 µM

Question: And the “inhibition of ENBT1-mediated [3H]adenine uptake” value (mENBT1; at highest concentration of 6-MP tested (1 mM), HEK293-mslc43a3)?
Answer: complete inhibition was not obtained

Question: And the “Ki relative to its Km for the transporter” value (mENBT1; mENBT1)?
Answer: 30 fold

Question: For Nc1ncnc2[nH]cnc12 [adenine, Adenine], which “uptake of radiolabelled substrate” value [1] is on record?
Answer: minimal uptake

Question: And the Ki (hENBT1)?
Answer: 25 ± 9 µM

Question: And the “inhibition of ENBT1-mediated [14C]6-MP uptake” value (hENBT1; at 1 mM adenine, HEK293-hSLC43A3)?
Answer: near complete inhibition

Question: And the Ki (mENBT1)?
Answer: 51 ± 13 µM

Question: What about the “inhibition of ENBT1-mediated [14C]6-MP uptake” value (mENBT1; at 1 mM adenine, HEK293-mslc43a3) of the same molecule?
Answer: near complete inhibition
